pIC50: −log10 of the molar value.
System: 317291-083-R-J1-PDC complex spheroids, viability
Experiment: Anticancer human tumor 317291-083-R-J1-PDC patient-derived soft tissue sarcoma cell line growth inhibition [GQUAD]
Settings: for pIC50: curve of first compound; for viability, T/C: stronger effect = lower value
Outline: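 Multi-cell-type spheroids of tumor cells with HUVEC and mesenchymal stem cells, treated with drug combinations. Concentrations descend in half-log steps from near clinical Cmax, or from 10 microM where Cmax is unknown; viability read-out.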

[1] = second compound 0.0316 µM, first compound 0.0316 µM
[2] = second compound 0.0316 µM, first compound 0.316 µM
[3] = second compound 0.1 µM, first compound 0.0316 µM
[4] = second compound 0.1 µM, first compound 0.316 µM
[5] = second compound 0.316 µM, first compound 0.0316 µM
[6] = second compound 0.316 µM, first compound 0.316 µM
[7] = second compound 1 µM, first compound 0.0316 µM
[8] = second compound 1 µM, first compound 0.316 µM
[9] = second compound 3.16 µM, first compound 0.0316 µM
[10] = second compound 3.16 µM, first compound 0.316 µM
[11] = second compound 10 µM, first compound 0.0316 µM
[12] = second compound 10 µM, first compound 0.316 µM
[13] = second compound 0.0316 µM, first compound 0.1 µM
[14] = second compound 0.0316 µM, first compound 1 µM
[15] = second compound 0.0316 µM, first compound 3.16 µM
[16] = second compound 0.0316 µM, first compound 10 µM
[17] = second compound 0.1 µM, first compound 0.1 µM
[18] = second compound 0.1 µM, first compound 1 µM
[19] = second compound 0.1 µM, first compound 3.16 µM
[20] = second compound 0.1 µM, first compound 10 µM
[21] = second compound 0.316 µM, first compound 0.1 µM
[22] = second compound 0.316 µM, first compound 1 µM
[23] = second compound 0.316 µM, first compound 3.16 µM
[24] = second compound 0.316 µM, first compound 10 µM
[25] = second compound 1 µM, first compound 0.1 µM
[26] = second compound 1 µM, first compound 1 µM
[27] = second compound 1 µM, first compound 3.16 µM
[28] = second compound 1 µM, first compound 10 µM
[29] = second compound 3.16 µM, first compound 0.1 µM
[30] = second compound 3.16 µM, first compound 1 µM
[31] = second compound 3.16 µM, first compound 3.16 µM
[32] = second compound 3.16 µM, first compound 10 µM
[33] = second compound 10 µM, first compound 0.1 µM
[34] = second compound 10 µM, first compound 1 µM
[35] = second compound 10 µM, first compound 3.16 µM
[36] = second compound 10 µM, first compound 10 µM
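Further: spheroids exposed to compounds for one week before readout.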
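Wherever viability, T/C is given: percent viability relative to DMSO vehicle wells taken as 100%.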

## CCc1c2c(nc3ccc(O)cc13)-c1cc3c(c(=O)n1C2)COC(=O)[C@]3(O)CC + Cc1[nH]c2ccc(F)cc2c1-c1nc2c3cccnc3c3ncccc3c2[nH]1
Second compound 0.0316 µM
  pIC50: 8.77
Second compound 0.1 µM
  pIC50: 8.80
Second compound 0.316 µM
  pIC50: 8.82
Second compound 1 µM
  pIC50: 8.75
Second compound 3.16 µM
  pIC50: 8.84
Second compound 10 µM
  pIC50: > 9.00
Second compound 0.0316 µM, first compound 0.000999 µM
  viability, T/C: 71.4%
Second compound 0.0316 µM, first compound 0.00316 µM
  viability, T/C: 23.9%
Second compound 0.0316 µM, first compound 0.00999 µM
  viability, T/C: 12.8%
[1]
  viability, T/C: 8.37%
Second compound 0.0316 µM, first compound 0.0999 µM
  viability, T/C: 6.91%
[2]
  viability, T/C: 4.31%
Second compound 0.1 µM, first compound 0.000999 µM
  viability, T/C: 70.2%
Second compound 0.1 µM, first compound 0.00316 µM
  viability, T/C: 19.9%
Second compound 0.1 µM, first compound 0.00999 µM
  viability, T/C: 8.9%
[3]
  viability, T/C: 10%
Second compound 0.1 µM, first compound 0.0999 µM
  viability, T/C: 7.96%
[4]
  viability, T/C: 3.98%
Second compound 0.316 µM, first compound 0.000999 µM
  viability, T/C: 66.7%
Second compound 0.316 µM, first compound 0.00316 µM
  viability, T/C: 18.4%
Second compound 0.316 µM, first compound 0.00999 µM
  viability, T/C: 16.5%
[5]
  viability, T/C: 8.55%
Second compound 0.316 µM, first compound 0.0999 µM
  viability, T/C: 6.58%
[6]
  viability, T/C: 4.87%
Second compound 1 µM, first compound 0.000999 µM
  viability, T/C: 75.8%
Second compound 1 µM, first compound 0.00316 µM
  viability, T/C: 22.1%
Second compound 1 µM, first compound 0.00999 µM
  viability, T/C: 14.6%
[7]
  viability, T/C: 9.41%
Second compound 1 µM, first compound 0.0999 µM
  viability, T/C: 6.65%
[8]
  viability, T/C: 5.39%
Second compound 3.16 µM, first compound 0.000999 µM
  viability, T/C: 65.4%
Second compound 3.16 µM, first compound 0.00316 µM
  viability, T/C: 18.1%
Second compound 3.16 µM, first compound 0.00999 µM
  viability, T/C: 8.2%
[9]
  viability, T/C: 8.72%
Second compound 3.16 µM, first compound 0.0999 µM
  viability, T/C: 6.44%
[10]
  viability, T/C: 4.32%
Second compound 10 µM, first compound 0.000999 µM
  viability, T/C: 37.7%
Second compound 10 µM, first compound 0.00316 µM
  viability, T/C: 14.2%
Second compound 10 µM, first compound 0.00999 µM
  viability, T/C: 9.41%
[11]
  viability, T/C: 9.06%
Second compound 10 µM, first compound 0.0999 µM
  viability, T/C: 5.65%
[12]
  viability, T/C: 7.19%

## COc1ncnc(C2CC2)c1-c1ncc2cnn(Cc3ccc(-c4nc(C(F)(F)F)cn4C(C)C)cc3)c2n1 + Cc1cnc(CNC(=O)c2c(=O)c3ccc(N4CCCN(C)CC4)nc3n3c2sc2ccccc23)cn1
Second compound 0.0316 µM
  pIC50: < 5.00
Second compound 0.1 µM
  pIC50: 6.86
Second compound 0.316 µM
  pIC50: 6.43
Second compound 1 µM
  pIC50: > 7.50
Second compound 3.16 µM
  pIC50: > 7.50
Second compound 10 µM
  pIC50: > 7.50
[1]
  viability, T/C: 78.3%
[13]
  viability, T/C: 76.8%
[2]
  viability, T/C: 71.6%
[14]
  viability, T/C: 72.2%
[15]
  viability, T/C: 67%
[16]
  viability, T/C: 54.1%
[3]
  viability, T/C: 59.5%
[17]
  viability, T/C: 51.1%
[4]
  viability, T/C: 47.3%
[18]
  viability, T/C: 39.3%
[19]
  viability, T/C: 56.1%
[20]
  viability, T/C: 53%
[5]
  viability, T/C: 46.6%
[21]
  viability, T/C: 48.1%
[6]
  viability, T/C: 63.6%
[22]
  viability, T/C: 31.2%
[23]
  viability, T/C: 37.4%
[24]
  viability, T/C: 32%
[7]
  viability, T/C: 31.3%
[25]
  viability, T/C: 36.8%
[8]
  viability, T/C: 44.1%
[26]
  viability, T/C: 30.5%
[27]
  viability, T/C: 32.3%
[28]
  viability, T/C: 25.8%
[9]
  viability, T/C: 20.5%
[29]
  viability, T/C: 13.6%
[10]
  viability, T/C: 30%
[30]
  viability, T/C: 15.5%
[31]
  viability, T/C: 16.2%
[32]
  viability, T/C: 21.2%
[11]
  viability, T/C: 0.63%
[33]
  viability, T/C: 0.19%
[12]
  viability, T/C: 0.22%
[34]
  viability, T/C: 0.19%
[35]
  viability, T/C: 0.26%
[36]
  viability, T/C: 0.24%

## COc1ccc([C@@H](O)c2cc(-c3ncnc4cc(N5CCOCC5)ccc34)c(F)cc2Cl)nn1 + Cc1[nH]c2ccc(F)cc2c1-c1nc2c3cccnc3c3ncccc3c2[nH]1
Second compound 0.0316 µM
  pIC50: 5.07
Second compound 0.1 µM
  pIC50: 5.14
Second compound 0.316 µM
  pIC50: < 5.00
Second compound 1 µM
  pIC50: 5.23
Second compound 3.16 µM
  pIC50: 5.41
Second compound 10 µM
  pIC50: 5.65
[1]
  viability, T/C: 103%
[13]
  viability, T/C: 91.6%
[2]
  viability, T/C: 105%
[14]
  viability, T/C: 79.6%
[15]
  viability, T/C: 72.2%
[16]
  viability, T/C: 46.3%
[3]
  viability, T/C: 102%
[17]
  viability, T/C: 101%
[4]
  viability, T/C: 86.8%
[18]
  viability, T/C: 73.7%
[19]
  viability, T/C: 69.9%
[20]
  viability, T/C: 42.6%
[5]
  viability, T/C: 99.5%
[21]
  viability, T/C: 95.4%
[6]
  viability, T/C: 96.6%
[22]
  viability, T/C: 92.5%
[23]
  viability, T/C: 86.2%
[24]
  viability, T/C: 53%
[7]
  viability, T/C: 90.6%
[25]
  viability, T/C: 110%
[8]
  viability, T/C: 88.6%
[26]
  viability, T/C: 78.5%
[27]
  viability, T/C: 64.3%
[28]
  viability, T/C: 39.1%
[9]
  viability, T/C: 72.4%
[29]
  viability, T/C: 81.8%
[10]
  viability, T/C: 76.4%
[30]
  viability, T/C: 91.7%
[31]
  viability, T/C: 55.6%
[32]
  viability, T/C: 25.2%
[11]
  viability, T/C: 68%
[33]
  viability, T/C: 66.5%
[12]
  viability, T/C: 79%
[34]
  viability, T/C: 54.8%
[35]
  viability, T/C: 47%
[36]
  viability, T/C: 16%

## O=c1[nH]cc(F)c(=O)[nH]1 + Cc1cnc(CNC(=O)c2c(=O)c3ccc(N4CCCN(C)CC4)nc3n3c2sc2ccccc23)cn1
Second compound 0.0316 µM
  pIC50: 5.68
Second compound 0.1 µM
  pIC50: 5.74
Second compound 0.316 µM
  pIC50: 6.28
Second compound 1 µM
  pIC50: > 7.50
Second compound 3.16 µM
  pIC50: > 7.50
Second compound 10 µM
  pIC50: > 7.50
[1]
  viability, T/C: 101%
[13]
  viability, T/C: 96.3%
[2]
  viability, T/C: 103%
[14]
  viability, T/C: 64.6%
[15]
  viability, T/C: 44.3%
[16]
  viability, T/C: 24.6%
[3]
  viability, T/C: 68.2%
[17]
  viability, T/C: 69.3%
[4]
  viability, T/C: 60.9%
[18]
  viability, T/C: 79.8%
[19]
  viability, T/C: 31.3%
[20]
  viability, T/C: 24.7%
[5]
  viability, T/C: 51.8%
[21]
  viability, T/C: 50.6%
[6]
  viability, T/C: 71.5%
[22]
  viability, T/C: 40%
[23]
  viability, T/C: 34.7%
[24]
  viability, T/C: 23.3%
[7]
  viability, T/C: 35.2%
[25]
  viability, T/C: 25.6%
[8]
  viability, T/C: 31%
[26]
  viability, T/C: 32.7%
[27]
  viability, T/C: 23.6%
[28]
  viability, T/C: 22.5%
[9]
  viability, T/C: 31.2%
[29]
  viability, T/C: 29.8%
[10]
  viability, T/C: 25.6%
[30]
  viability, T/C: 49.5%
[31]
  viability, T/C: 22.6%
[32]
  viability, T/C: 15.1%
[11]
  viability, T/C: 21.4%
[33]
  viability, T/C: 28%
[12]
  viability, T/C: 14.6%
[34]
  viability, T/C: 26.5%
[35]
  viability, T/C: 25.7%
[36]
  viability, T/C: 16.4%
